{"source": "patent US7163702B1", "about": "(priority 2004, dated 2007)", "origin": "cited, not measured here", "conditions": "human, in vivo", "data": [{"smiles": "N=C(N)c1ccc(OCCCCCOc2ccc(C(=N)N)cc2)cc1", "note": "[pentamidine]", "values": [{"measurement": "incidence of adverse reactions", "result": "around 50%"}]}]}
